# PMC5608341, “The human VGF-derived bioactive peptide TLQP-21 binds heat shock 71 kDa protein 8 (HSPA8)on the surface of SH-SY5Y cells” (PLoS ONE, 2017)
# Where no end group is shown, it is not given here. The star is where a group is joined. Biotin = O=C1N[C@H]2[C@H](CS[C@H]2CCCCC(=O)*)N1
# Experiments:
# [1] = tested on: Heat shock cognate 71 kDa protein (HSPA8/HSC70); assay: Avidin-agarose affinity chromatography of SH-SY5Y cell homogenate with biotin-TLQP-21, SDS-PAGE/SYPRO Ruby and MASCOT MS/MS identification; HSPA8; type: binding, human; details: fractions 4-5, control column without biotin-TLQP-21
# Method: Portions (25 μl) of each elution fraction from avidin-agarose affinity chromatography were boiled in 2x Laemmli buffer and loaded to a 10% SDS-PAGE gel. Electrophoresis was carried out at 200V for 60 minutes. After completion, the gel was washed in dH2O for 10 minutes. […] The gel was then transferred to a clean staining container, and washed for 5 minutes with fixing solution followed by washing for 5 minutes in dH2O.Finally, the gel was imaged in a Molecular Imager Gel Doc system (Bio Rad, Hercules) using the highest sensitivity of the CCD camera (CoolSNAP HQ2, Roper Scientific) at a resolution of 1392 x 1040 pixels with 12 bit gray scale levels per pixel. […] Extracted peptides were analyzed by LC-MS/MS. […] Ionized peptides were detected in a Bruker Amazon ETD ion trap. Automated analysis of mass data was performed by Data Analysis 4.0 and BioTools 3.2 from Bruker Daltonik GmbH. Database search was done with the Mascot v2.3 search tool (Matrix Science) screening SwissProt (release 57.15). Searches were limited to human taxonomy selecting carbamidomethyl cysteine as a fixed modification and oxidized methionine as potential variable modification. […] All spectra and database results were scrutinized manually in details using the above software, especially in the case of identifications based on one peptide hit. […]
# [2] = tested on: HSPA8 on the surface of SH-SY5Y cells; assay: Crosslinking of biotinylated TLQP-21 to live SH-SY5Y surface membrane proteins, avidin affinity, Western blot; type: binding, human; details: 50 μM biotin-TLQP-21, 1 mM Sulfo-EMCS, 1 hour, room temperature; versus control without peptide
# Method: After electrophoresis, as described earlier, proteins were transferred onto PVDF membranes (Millipore, Bedford) using semi-dry method (Trans-blot SD semi-dry transfer cell, Biorad). The membranes were then blocked 5% BSA in TBS-T solution (Tris-buffered saline with 0.1% tween 20, pH = 7.6) for 1 hour at room temperature, and probed with anti-HSC70/HSPA8 (Abcam) antibody at 1:500 dilution. Anti-rabbit antibody (Dako) at a 1:2000 dilution was used as the secondary antibody. Subsequently, the membrane was incubated with Luminata Forte Western HRP substrate [Merck Millipore] for 5 minutes and developed using Hypercassette and Amersham hyperfilm (GE Healthcare).
# SH-SY5Y cells were grown as described above until confluence. Culture medium was removed, cells were washed three times with cold PBS and incubated with 2 mL of PBS containing 1 mM Sulfo-EMCS with 50 μM biotin-TLQP-21 for 1 hour at room temperature. Control cells were incubated under the same conditions with the same reaction mixture lacking biotin-TLQP-21. The cross-linking reaction was stopped adding Tris-HCl, pH 7.8 to a final concentration 50 mM. Cells were washed twice with cold PBS and solubilized in lysis buffer (20 mM HEPES pH 7.4, 2 mM EGTA, 1 mM DTT, 1 mM sodium orthovanadate, 1% Triton X-100, 10% glycerol, 2 μM leupeptin, 400 μM PMSF, 50 μM β-glycerophosphate and 100 μg/ml aprotinin). […]
# HSPA8 [3] = details: pooled fractions 4 and 5, anti-HSPA8 1:500, three replicates, versus control fractions
# Method: A monomeric avidin column (Thermo Scientific) was washed with 8 ml PBS followed by addition of 6 ml (2 mM D-biotin in PBS, pH = 7.2) to block any non-reversible biotin binding sites. Regeneration buffer (0.1M glycine, pH 2.8, 12 ml) was added to remove biotin from the reversible binding sites followed by washing with 8 ml of PBS. One ml of 0.1 mM biotin-TLQP-21 was mixed with 900 μl of PBS and 100 μl of 1mM TCEP and the resulting solution was applied to the column, which was incubated for an hour at room temperature. The column was then washed with 12 ml of PBS. A 2ml solution containing 700 μl of SH-SY5Y cell lysate with a protein concentration of 10μg/μl was diluted with 1.3 ml of PBS and applied then to the column. The column was then washed with 12 ml of PBS, and eluted with 10 ml of blocking/elution buffer. Fractions of 500 μl were collected and kept on ice until further use for analysis by SYPRO® Ruby Protein Gel Stain (Lonza), and Western blot. As a control, cell lysate solution was added under the same conditions to a column to which biotin-TLQP-21 was not attached.
# After electrophoresis, as described earlier, proteins were transferred onto PVDF membranes (Millipore, Bedford) using semi-dry method (Trans-blot SD semi-dry transfer cell, Biorad). […]
# HSPA8 [4] = target: T1, HSPA8 (Homo sapiens, UniProt P11142); details: ref [45]; read-out: affinity of HSPA8 for the phosphorylated peptide P140; cited from earlier work
# T1 construct: HSPA8 immobilization was performed by adding 15 μl of 25 μg/ml of protein in 20 mM sodium acetate buffer
# [5] = tested on: complement component-3a receptor 1 (C3AR1); details: ref [27]–[28]; cited from earlier work
# Description: (§1) Remarkably, despite the large volume of data on effects of VGF-derived peptides, very little is known about their receptors, downstream signaling routes and mechanisms of action. […] We reasoned that the neuroblastoma cell line SH-SY5Y would be a good model to study receptors and downstream mechanisms of VGF-derived peptides, given the substantial expression and secrete levels of VGF and VGF-derived ...
# [6] = tested on: globular head of the complement component C1q receptor (gC1qR); details: ref [29]; cited from earlier work
# Description: as §1
# T1 sequence (P11142 whole entry): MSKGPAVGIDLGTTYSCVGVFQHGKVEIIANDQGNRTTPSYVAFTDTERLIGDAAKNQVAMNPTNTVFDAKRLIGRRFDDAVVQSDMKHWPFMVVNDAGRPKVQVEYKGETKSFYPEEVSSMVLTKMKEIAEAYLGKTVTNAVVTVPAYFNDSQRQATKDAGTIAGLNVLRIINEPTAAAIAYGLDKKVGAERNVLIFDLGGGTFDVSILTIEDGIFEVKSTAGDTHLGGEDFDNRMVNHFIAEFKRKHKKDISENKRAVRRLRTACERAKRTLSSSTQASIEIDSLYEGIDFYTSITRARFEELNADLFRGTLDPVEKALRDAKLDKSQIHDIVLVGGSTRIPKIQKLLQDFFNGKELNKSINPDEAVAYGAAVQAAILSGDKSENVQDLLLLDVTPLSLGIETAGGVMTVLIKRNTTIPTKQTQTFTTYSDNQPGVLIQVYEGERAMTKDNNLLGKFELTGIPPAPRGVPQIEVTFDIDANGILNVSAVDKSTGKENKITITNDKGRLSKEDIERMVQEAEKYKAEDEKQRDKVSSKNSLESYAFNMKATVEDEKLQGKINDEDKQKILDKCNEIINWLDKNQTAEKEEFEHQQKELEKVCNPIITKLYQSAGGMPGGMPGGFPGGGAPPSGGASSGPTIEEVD
substance,measurement,setting,value
"Biotin-TLQPPSALRRRHYHHALPPSRC [biotin-TLQP-21, amino-terminally biotinylated human TLQP-21 containing an extra cysteine residue at the C-terminus]",~70 kDa protein bound on biotin-TLQP-21 column (SYPRO Ruby),[1],A ~70 kDa protein was bound
same,~70 kDa protein bound on biotin-TLQP-21 column (SYPRO Ruby),[1]; listed as biotinyl-TLQP-21,a protein band of ∼70 kDa was detected by SYPRO Ruby staining
same,cross-linking to HSPA8 on live cell surface,[2],A positive ~70kDa band corresponding to HSPA8 was detected
same,Western blot detection of HSPA8 in eluate of biotin-TLQP-21 column,HSPA8 [3],confirmed the ~70 kDa protein as HSPA8 but not in the controls
"P140: phosphorylated peptide P140, corresponds to a portion of the spliceosomal U1-70K snRNP protein, recognized by lupus CD4+ T cells (RIHMVYSKRSGKPRGYAFIEY; phospho-Ser140 (10th residue of the peptide); P140/Lupuzor is conventionally U1-70K (SNRNP70) 131-151)",Kd,HSPA8 [4],~7 µM
"TLQPPASSRRRHFHHALPPAR [murine TLQP-21, mouse TLQP-21]",C3AR1 as receptor,[5],identified as potential receptors
same,gC1qR as receptor,[6],identified as potential receptors
